Measurements as given in PubChem BioAssay (NCI).
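Here, GI50 denotes the concentration required for 50% inhibition of growth. TGI: total growth inhibition.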

Assays:
Experiment in all cases: inhibition of tumour cell growth, NCI panel, 384-well format; in the data active = GI50 below about 0.43 µM; inactive = the rest
SN12C renal = test system: SN12C renal
SK-OV-3 ovarian = test system: SK-OV-3 ovarian
HCT-116 colon = test system: HCT-116 colon
CAKI-1 renal = test system: CAKI-1 renal
A498 renal = test system: A498 renal
U251 glioblastoma = test system: U251 glioblastoma
DU-145 prostate = test system: DU-145 prostate
ACHN renal = test system: ACHN renal
MDA-MB-468 breast = test system: MDA-MB-468 breast
SF-268 CNS = test system: SF-268 CNS
NCI-H460 NSCLC = test system: NCI-H460 NSCLC
SW-620 colon = test system: SW-620 colon
SR leukemia = test system: SR leukemia
BT-549 breast = test system: BT-549 breast
NCI-H23 lung = test system: NCI-H23 lung
NCI-H322M lung = test system: NCI-H322M lung
OVCAR-8 ovarian = test system: OVCAR-8 ovarian
OVCAR-5 ovarian = test system: OVCAR-5 ovarian
MCF7 breast = test system: MCF7 breast
SNB-75 CNS = test system: SNB-75 CNS
MALME-3M melanoma = test system: MALME-3M melanoma
M14 melanoma = test system: M14 melanoma
TK-10 renal = test system: TK-10 renal
COLO 205 colon = test system: COLO 205 colon
T-47D breast = test system: T-47D breast
EKVX NSCLC = test system: EKVX NSCLC
SF-295 CNS = test system: SF-295 CNS
HCT-15 colon = test system: HCT-15 colon
786-0 renal = test system: 786-0 renal
PC-3 prostate = test system: PC-3 prostate
HT29 colon = test system: HT29 colon
IGROV1 ovarian = test system: IGROV1 ovarian
SK-MEL-2 melanoma = test system: SK-MEL-2 melanoma
A549 NSCLC = test system: A549 NSCLC
HOP-92 NSCLC = test system: HOP-92 NSCLC
NCI-H226 lung = test system: NCI-H226 lung
RXF 393 renal = test system: RXF 393 renal
HL-60(TB) leukemia = test system: HL-60(TB) leukemia
KM12 colon = test system: KM12 colon
HS 578T breast = test system: HS 578T breast
OVCAR-3 ovarian = test system: OVCAR-3 ovarian
HOP-62 NSCLC = test system: HOP-62 NSCLC
SNB-19 CNS = test system: SNB-19 CNS
OVCAR-4 ovarian = test system: OVCAR-4 ovarian
MOLT-4 leukemia = test system: MOLT-4 leukemia
SF-539 CNS = test system: SF-539 CNS
UACC-257 melanoma = test system: UACC-257 melanoma
MDA-MB-231 breast = test system: MDA-MB-231 breast
SK-MEL-28 melanoma = test system: SK-MEL-28 melanoma
UO-31 renal = test system: UO-31 renal
MDA-MB-435 melanoma = test system: MDA-MB-435 melanoma
SK-MEL-5 melanoma = test system: SK-MEL-5 melanoma
K-562 leukemia = test system: K-562 leukemia
UACC-62 melanoma = test system: UACC-62 melanoma
NCI-H522 lung = test system: NCI-H522 lung

Cc1cc(C)c(CNC(=O)c2cc(Cl)c3c(c2C)O[C@@](C)(C2CCC(N(C)C)CC2)O3)c(=O)[nH]1 (stereo not given in full)
73.2 µM: TGI (MDA-MB-468 breast)
39.2 µM: TGI (CAKI-1 renal)
inactive: GI50 (SN12C renal) 76.6 µM | GI50 (SK-OV-3 ovarian) > 100 µM | GI50 (HCT-116 colon) 38.6 µM | GI50 (CAKI-1 renal) 19.1 µM | GI50 (A498 renal) 20.4 µM | GI50 (U251 glioblastoma) 72.9 µM | GI50 (DU-145 prostate) 81.1 µM | GI50 (ACHN renal) > 100 µM | GI50 (MDA-MB-468 breast) 24.9 µM | GI50 (SF-268 CNS) 45.4 µM | GI50 (NCI-H460 NSCLC) 37.2 µM | GI50 (SW-620 colon) > 100 µM | GI50 (SR leukemia) 19.8 µM | GI50 (BT-549 breast) 19 µM | GI50 (NCI-H23 lung) 46.8 µM | GI50 (NCI-H322M lung) > 100 µM | GI50 (OVCAR-8 ovarian) > 100 µM | GI50 (OVCAR-5 ovarian) > 100 µM | GI50 (MCF7 breast) 44.9 µM | GI50 (SNB-75 CNS) 18.6 µM | GI50 (MALME-3M melanoma) 25.1 µM | GI50 (M14 melanoma) 38.2 µM | GI50 (TK-10 renal) 33.4 µM | GI50 (COLO 205 colon) > 100 µM | GI50 (T-47D breast) > 100 µM | GI50 (EKVX NSCLC) 48.9 µM | GI50 (SF-295 CNS) 35.1 µM | GI50 (HCT-15 colon) 71.1 µM | GI50 ([…]-0 renal) 16.1 µM | GI50 (PC-3 prostate) 56.3 µM | GI50 (HT29 colon) 21.3 µM | GI50 (IGROV1 ovarian) 51 µM | GI50 (SK-MEL-2 melanoma) 17.4 µM | GI50 (A549 NSCLC) 76.2 µM | GI50 (HOP-92 NSCLC) 40 µM | GI50 (NCI-H226 lung) 44.3 µM | GI50 (RXF 393 renal) 7.55 µM | GI50 (HL-60(TB) leukemia) 15.4 µM | GI50 (KM12 colon) 59.4 µM | GI50 (HS 578T breast) 13.8 µM | GI50 (OVCAR-3 ovarian) 72 µM | GI50 (HOP-62 NSCLC) > 100 µM | GI50 (SNB-19 CNS) > 100 µM | GI50 (OVCAR-4 ovarian) > 100 µM | GI50 (MOLT-4 leukemia) 29.2 µM | GI50 (SF-539 CNS) 35 µM | GI50 (UACC-257 melanoma) 22.7 µM | GI50 (MDA-MB-231 breast) > 100 µM | GI50 (SK-MEL-28 melanoma) 83 µM | GI50 (UO-31 renal) 63.1 µM | GI50 (MDA-MB-435 melanoma) 73.4 µM | GI50 (SK-MEL-5 melanoma) 17.6 µM | GI50 (K-562 leukemia) 14.9 µM | GI50 (UACC-62 melanoma) 32.6 µM | GI50 (NCI-H522 lung) > 100 µM
51.8 µM: TGI (UACC-257 melanoma)
48.7 µM: TGI (HT29 colon)
45 µM: TGI (BT-549 breast)
34.1 µM: TGI (SR leukemia)
37.6 µM: TGI (HL-60(TB) leukemia)
21.2 µM: TGI (RXF 393 renal)
56.9 µM: TGI (MALME-3M melanoma)
45.6 µM: TGI (SK-MEL-2 melanoma)
60.3 µM: TGI (SNB-75 CNS)
37.1 µM: TGI (A498 renal)
37.2 µM: TGI (SK-MEL-5 melanoma)
77.5 µM: TGI (MOLT-4 leukemia)
32.7 µM: TGI (HS 578T breast)
32 µM: TGI (786-0 renal)
> 100 µM: TGI (SN12C renal) | TGI (SK-OV-3 ovarian) | TGI (HCT-116 colon) | TGI (U251 glioblastoma) | TGI (DU-145 prostate) | TGI (ACHN renal) | TGI (SF-268 CNS) | TGI (NCI-H460 NSCLC) | TGI (SW-620 colon) | TGI (NCI-H23 lung) | TGI (NCI-H322M lung) | TGI (OVCAR-8 ovarian) | TGI (OVCAR-5 ovarian) | TGI (MCF7 breast) | TGI (M14 melanoma) | TGI (TK-10 renal) | TGI (COLO 205 colon) | TGI (T-47D breast) | TGI (EKVX NSCLC) | TGI (SF-295 CNS) | TGI (HCT-15 colon) | TGI (PC-3 prostate) | TGI (IGROV1 ovarian) | TGI (A549 NSCLC) | TGI (HOP-92 NSCLC) | TGI (NCI-H226 lung) | TGI (KM12 colon) | TGI (OVCAR-3 ovarian) | TGI (HOP-62 NSCLC) | TGI (SNB-19 CNS) | TGI (OVCAR-4 ovarian) | TGI (SF-539 CNS) | TGI (MDA-MB-231 breast) | TGI (SK-MEL-28 melanoma) | TGI (UO-31 renal) | TGI (MDA-MB-435 melanoma) | TGI (UACC-62 melanoma) | TGI (NCI-H522 lung)
30.5 µM: TGI (K-562 leukemia)
